# Laboratory results published in patent US9895381B2, “Vitamin D receptor agonists to treat diseases involving CXCL12 activity” (Salk Institute for Biological Studies, priority 2013, dated 2018).
# How the values were obtained:
# [1] = cited from earlier work
# [2] = system: pancreatic cancer patient; test: Patient treated with neoadjuvant paricalcitol plus gemcitabine/abraxane; format: in vivo, human
# Method: Thus, in some examples, paricalcitol is administered at 5 or 10 μg IV three times weekly for two-three weeks before surgery. […] Paricalcitol can be given for 28 days approximately prior to planned surgery, and can be continued up to the day before surgery, since there is no relevant toxicity of this micronutrient. Last dose can be 24 h before surgery (if surgery is delayed, and additional days of therapy may be given to reach the day before surgery).
# PDA patients = conditions: standard of care; cited from earlier work
# [3] = 28 days paricalcitol with one cycle of gemcitabine/abraxane
"calcium levels [2, 3]",SMILES,phosphorus and calcium levels ([1]; first 30 days of treatment),mean plasma clearance ([1]; over 600 patients) [L/h],"adverse clinical effects before surgery [2, 3]",histological analysis of resected tumor ([2]; after surgery),"serum CA 19-9 level after treatment ([2]; reduced from 120 U/mL, normal range 0-37 U/mL) [U/mL]",benefit to PDA patients (PDA patients) [month]
no elevation calcium levels,"C[C@H](/C=C/[C@H](C)C(C)(C)O)[C@H]1CC[C@H]2/C(=C/C=C3C[C@@H](O)C[C@H](O)C3)CCC[C@]12C [Paricalcitol, 19-nor-1,25-(OH)2-vitamin D2]",stable phosphorus and calcium levels,1.75,No adverse clinical effects,granulomas with few cancer cells,40,–
–,"Cl.Nc1ccn([C@@H]2O[C@H](CO)[C@@H](O)C2(F)F)c(=O)n1 [gemcitabine, 2′-Deoxy-2′,2′-difluorocytidine monohydrochloride]",–,–,–,–,–,1.5
